Test results reported in patent US12497614B2, “Compositions and methods for editing beta-globin for treatment of hemaglobinopathies” (Vertex Pharmaceuticals Incorporated, priority 2020, dated 2025).

Tests used:
[1] = system: HBB gene locus in CD34+ HSPCs; assay: HDR efficiency with DNA-PK inhibitors for editing the HBB gene in CD34+ HSPCs; NGS (Example 4); assay type: cell-based, human
Protocol: The cells were transduced with AAV donor template for 1 hour at 37° C. prior to electroporation. AAV-encoded homology donor template referred to as “AAV.310”, which is identified by sequence in Table 8. The AAV.310 donor template encodes a SCD mutation, specifically valine at the 6th codon downstream the HBB start codon (E6V). The cells were treated with AAV at a dose of 10,000 MOI.
Edited cells were evaluated for viability using trypan blue, and for incorporation of gene-edits at 2 days post-electroporation. The efficiency of HDR repair for introducing an E6V mutation in the HBB gene was quantified by NGS assay as described in Example 1, and the frequency of INDELs induced at the T107 cut site was also evaluated by NGS analysis.
The INDELs species identified in edited cells were further evaluated to determine frequency of repair by NHEJ or MMEJ repair pathways. An INDEL of ±1 nt was considered due to NHEJ repair; a deletion of −9 nt was considered due to MMEJ repair based on the microhomology present on either side of the T107 cut site. Based on percentage of total reads corresponding to these INDEL species, the ratio of gene edits due to NHEJ and MMEJ repair was evaluated. […] Thus, reduced frequency of INDELs with treatment of compound 296 or i53 is largely due to suppression of the NHEJ repair pathway.

CD34+ HSPCs [2] = assay: Erythrocyte functionality: enucleation and cell-surface markers by flow cytometry (Example 5); assay type: cell-based, human; details: T107 RNP+AAV.310 alone or combined with the inhibitor
Protocol: (§1) Following editing, cells were differentiated to erythrocytes.
The ability of edited cells to differentiate to functional erythrocytes was assessed by determining expression of erythrocyte-associated cell surface markers and enucleation using flow cytometry on day 12 and 18 post editing. Briefly, 4×10^5 cells were obtained, and half were stained for erythrocyte cell-surface markers and half were used for detection of enucleation. For staining cell-surface markers, the cells were incubated in PBS containing 1% human serum albumin (PBS-A) and an antibody cocktail of anti-CD233(BRIC6-Band3)-FITC, anti-CD71-PE, anti-CD235a(GlyA)-PE/Cy7, and anti-CD49d (α4)-VioBlue. For detection of enucleation, 2 drops of NucRed nuclear staining reagent was added to 1 mL PBS-A, and 100 μL was added to plated cells. Following incubation, both cell samples were labeled with Sytox Blue solution (1:1000 dilution in PBS-A) for live/dead analysis. Samples were then assessed by flow cytometry

CD34+ HSPCs [3] = assay: Globin and hemoglobin analysis by HPLC on day 18 of differentiation (Example 5); assay type: cell-based, human; details: T107 RNP+AAV.310 alone or combined with the inhibitor
Protocol: as §1
Additionally, on day 18 post-editing, expression of globin monomers was assessed in differentiated cells by HPLC as described in Example 3. […] Accordingly, the editing was sufficient to both introduce the SCD mutation in HBB and result in expression of sickle globin.
Furthermore, production of hemoglobin tetramers was also evaluated by HPLC. The analysis included quantification of HbS tetramer containing sickle-globin (α2β(E6V)2), HbF tetramer (α2γ2), HbA (α2β2), and HbA2 (α2δ2) produced by edited cells. […] Thus, the editing was also sufficient to alter hemoglobin output following in vitro differentiation.

CD34+ HSPCs [4] = assay: Cell growth and viability (trypan blue) of edited CD34+ HSPCs during differentiation (Example 5); details: day 0 to day 18 post-editing; inhibitor 1 or 3 μM, i53 1 μg mRNA; data not shown
Protocol: Briefly, frozen CD34+ HSPCs isolated from Plerixafor mobilized peripheral blood, obtained from healthy human donors were thawed. The cells were seeded in CD34 cell media at a cell density of 2×10^5 cells/mL. Cells were cultured at 37° C. under normoxic conditions (i.e., oxygen 20%). Gene-editing was performed following two days of in vitro culture. For editing, 5×10^5 CD34+ HSPCs were electroporated with RNP containing 200 μg/ml Cas9 and 200 μg/ml T107 sgRNA. […] The cells were transduced with AAV.310, 1 hour prior to electroporation, at a dose of 10,000 MOI. The cells were plated in CD34 cell medium containing Compound 296 or Compound 984 immediately following the electroporation, at a concentration of 1 μM or 3 μM for 48 hours. […] Post electroporation cells were resuspended in CD34 cell medium at a density of 2-5×10^5 cells/ml and incubated at 37° C. for 48 hours.
Following editing, cells were differentiated to erythrocytes. Briefly, cells were plated in fresh CD34 media at a density of 2×10^5 cells/mL, and re-plated at similar density in fresh CD34 media on days 3 and 5 post-editing. On day 7 and 10 post-editing, the cells were incubated in Phase II media at a density of 2.5×10^5 and 1×10^6 cells/mL respectively. On day 12 post-editing, the cells were incubated in Phase III media at a density of 1×10^6 cells/mL. On day 14 cells were plated at a density of 2×10^6 cells/ml in Phase III media and maintained till day 18 at 37° C. Cell growth was measured at various time points between day 0 and day 18 post-editing, and the percentage of viable cells was measured by staining with tryphan blue.

HBB gene in CD34+ HSPCs = assay: In vitro editing with T107 RNP, AAV.310 or AAV.320 and inhibitors before transplantation; NGS and cell growth (Example 6); details: for change in cell growth if cells were edited with the inhibitor: T107 RNP+AAV.310 or AAV.320, data not shown; for frequency of HDR relative to editing with T107 RNP and AAV only / frequency of INDELs relative to editing with T107 RNP and AAV only: i53 1 μg mRNA, Compound 984 1 μM or 3 μM
Protocol: Briefly, frozen CD34+ HSPCs isolated from plerixafor-mobilized peripheral blood obtained from two healthy human donors were thawed and seeded in media with components as described in Example 1. The cells were maintained in culture, and gene-editing was performed following two days of culture. For editing, 5×10^5 CD34+ HSPCs were electroporated with RNP containing 20 μg SpCas9 and 20 μg T107 sgRNA. Electroporation was performed using the CA-137 program of the Lonza Amaxa™ 4D-Nucleofector™. The cells were transduced with AAV.310 or AAV.320 for 1 hour at 37° C. prior to electroporation at a dose of 10,000 MOI. The cells were electroporated and immediately plated in medium containing Compound 984 at 1 μM or 3 μM.
Cells were maintained in culture for two days following electroporation. Fold change in cell-growth between day 0 and day 2 post-electroporation was quantified.
Additionally, gene-edits in HBB were evaluated in CD34+ HSPCs following two days of in vitro culture.

[5] = T107 RNP + AAV.310 + 0.012 μM compound, 48 hours
[6] = T107 RNP + AAV.310 + 0.037 μM compound, 48 hours
[7] = T107 RNP + AAV.310 + 0.04 μM compound, 48 hours
[8] = T107 RNP + AAV.310 + 3.3 μM compound, 48 hours
[9] = T107 RNP + AAV.310 + 10 μM compound, 48 hours
[10] = T107 RNP + AAV.310 + i53 (1 μg mRNA)

Row | Molecule | levels of enucleation vs control cells (CD34+ HSPCs [2]) | HbA production compared to control cells (CD34+ HSPCs [3]) | HbS production compared to control cells (CD34+ HSPCs [3]) | expression of sickle-globin compared to control cells (CD34+ HSPCs [3]) | cell growth over time or percent viability vs T107 RNP+AAV.310 edited cells (CD34+ HSPCs [4]) | change in cell growth if cells were edited with the inhibitor (HBB gene in CD34+ HSPCs) | frequency of HDR relative to editing with T107 RNP and AAV only (HBB gene in CD34+ HSPCs) | frequency of INDELs relative to editing with T107 RNP and AAV only (HBB gene in CD34+ HSPCs) | also measured
1 | [2H]c1nc(C)nc([2H])c1-c1cc(NC[C@@H](C)c2cccc3c(C(=O)NC)ccnc23)ncn1 [Compound 984] | comparable | decreased | increased | increased | No difference | no substantial change | increased | decreased | % HDR [1, 5]: 44%; % INDELs [1, 5]: 39%; % HDR [1, 6]: 51%; % INDELs [1, 6]: 36%; % HDR [1, 7]: 42%; % INDELs [1, 7]: 40%; % HDR [1, 8]: 49%; % INDELs [1, 8]: 30%; % HDR [1, 9]: 48%; % INDELs [1, 9]: 33%; reduction of the frequency of INDELs at the T107 cut site compared to control cells ([1]; T107 RNP+AAV.310 with DNA-PK inhibitor): approximately 1.6 fold
2 | i53: polypeptide inhibitor of 53BP1 (SEQ ID NO: 11), introduced as an mRNA-encoded protein (ORF SEQ ID NO: 10) | comparable | decreased | increased | increased | No difference | no substantial change | increased | decreased | % HDR [1, 10]: 35%; % INDELs [1, 10]: 42%; INDEL species due to MMEJ repair (deletion of −9 nt) ([1]; T107 RNP+AAV.310, Compound 296 at 10 μM, i53 at 1 μg mRNA): did not affect
